T1: Solute carrier organic anion transporter family member 1A3 (Rattus norvegicus, UniProt P70502)
T1 sequence (P70502 whole entry): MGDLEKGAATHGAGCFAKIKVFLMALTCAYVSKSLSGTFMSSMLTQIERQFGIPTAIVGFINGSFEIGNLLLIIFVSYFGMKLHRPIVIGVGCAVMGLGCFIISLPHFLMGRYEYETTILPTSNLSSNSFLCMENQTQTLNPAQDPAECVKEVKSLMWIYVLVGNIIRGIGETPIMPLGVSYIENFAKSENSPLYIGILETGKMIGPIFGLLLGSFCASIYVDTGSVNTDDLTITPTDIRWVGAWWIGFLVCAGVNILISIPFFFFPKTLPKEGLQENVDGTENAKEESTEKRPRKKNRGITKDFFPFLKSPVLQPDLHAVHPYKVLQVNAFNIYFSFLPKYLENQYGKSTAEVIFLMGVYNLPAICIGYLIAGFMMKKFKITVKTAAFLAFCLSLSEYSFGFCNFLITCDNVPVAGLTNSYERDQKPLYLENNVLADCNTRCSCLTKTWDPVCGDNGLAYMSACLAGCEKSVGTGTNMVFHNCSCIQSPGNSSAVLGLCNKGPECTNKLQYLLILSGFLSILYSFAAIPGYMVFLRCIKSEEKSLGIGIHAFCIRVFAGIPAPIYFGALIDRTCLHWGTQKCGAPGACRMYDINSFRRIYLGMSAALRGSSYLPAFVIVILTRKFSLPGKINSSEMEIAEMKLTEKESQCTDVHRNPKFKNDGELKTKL


Assays:
Format in all cases: functional, cell-based
[1] = molecular target: T1, Solute carrier organic anion transporter family member 1A3; assay: TP_TRANSPORTER: uptake in Xenopus laevis oocytes; conditions: oocyte
[2] = molecular target: T1, Solute carrier organic anion transporter family member 1A3; assay: TP_TRANSPORTER: inhibition of MTX uptake (MTX: 0.01 uM, PAH: 100 uM) in OAT-K1-expressing MDCK cells; conditions: dog
[3] = substrate: CN(Cc1cnc2nc(N)nc(N)c2n1)c1ccc(C(=O)N[C@@H](CCC(=O)O)C(=O)O)cc1; assay: TP_TRANSPORTER: uptake in OAT-K1-expressing MDCK cells

Activity [1] | Molecule | Activity [2] | Km [3]
is not a substrate [-] | Nc1ccc(C(=O)NCC(=O)O)cc1 [AMINOHIPPURIC ACID] | inhibitor [(at a rough estimate) 55 % of control] | –
– | Solute carrier organic anion transporter family member 1A3 (Rattus norvegicus) (protein) MGDLEKGAATHGAGCFAKIKVFLMALTCAYVSKSLSGTFMSSMLTQIERQFGIPTAIVGFINGSFEIGNLLLIIFVSYFGMKLHRPIVIGVGCAVMGLGCFIISLPHFLMGRYEYETTILPTSNLSSNSFLCMENQTQTLNPAQDPAECVKEVKSLMWIYVLVGNIIRGIGETPIMPLGVSYIENFAKSENSPLYIGILETGKMIGPIFGLLLGSFCASIYVDTGSVNTDDLTITPTDIRWVGAWWIGFLVCAGVNILISIPFFFFPKTLPKEGLQENVDGTENAKEESTEKRPRKKNRGITKDFFPFLKSPVLQPDLHAVHPYKVLQVNAFNIYFSFLPKYLENQYGKSTAEVIFLMGVYNLPAICIGYLIAGFMMKKFKITVKTAAFLAFCLSLSEYSFGFCNFLITCDNVPVAGLTNSYERDQKPLYLENNVLADCNTRCSCLTKTWDPVCGDNGLAYMSACLAGCEKSVGTGTNMVFHNCSCIQSPGNSSAVLGLCNKGPECTNKLQYLLILSGFLSILYSFAAIPGYMVFLRCIKSEEKSLGIGIHAFCIRVFAGIPAPIYFGALIDRTCLHWGTQKCGAPGACRMYDINSFRRIYLGMSAALRGSSYLPAFVIVILTRKFSLPGKINSSEMEIAEMKLTEKESQCTDVHRNPKFKNDGELKTKL | – | 2.1 µM
